Test results: article PMC4740573 (Clinical Drug Investigation, 2015)
Each block holds one compound with its values, some of them ahead of it.

Key:
[1] = system: activated partial thromboplastin time; test: Activated partial thromboplastin time; format: in vivo, human; conditions: for LS mean aPTT at 2 h after dosing: ANCOVA; for Activated partial thromboplastin time A max / Activated partial thromboplastin time A min / Activated partial thromboplastin time AUEτ: mean ± SD; for Activated partial thromboplastin time T max: median (minimum, maximum)
thrombin generation = test: Technothrombin thrombin generation assay; format: in vivo, human; conditions: for Endogenous thrombin potential A max / Endogenous thrombin potential A min / Lag time A max / Lag time A min / Peak thrombin A max / Peak thrombin A min / Time to peak A max / Time to peak A min / Velocity A max / Velocity A min: mean ± SD
Safety assessment = format: in vivo, human; conditions: healthy adult subjects
[2] = cited from earlier work
[3] = Plasma pharmacokinetics in healthy subjects; conditions: for T max: median (minimum, maximum); for AUC: AUCτ, 24 h dosing interval; for Cmax: C max, healthy subjects
[4] = day 4, edoxaban after switching from dabigatran etexilate (treatment 3)
[5] = day 4, edoxaban after switching from rivaroxaban (treatment 2)
[6] = day 4, edoxaban alone (treatment 1)
[7] = edoxaban after switching from dabigatran etexilate, day 4 (treatment 3)
[8] = edoxaban after switching from rivaroxaban, day 4 (treatment 2)
[9] = edoxaban alone, day 1 (treatment 1)
[10] = edoxaban alone, day 4 (treatment 1)

Activated partial thromboplastin time T max [1, 4]: 1.00 (0.50, 3.00) h
Activated partial thromboplastin time T max [1, 5]: 1.00 (0.50, 4.00) h
Activated partial thromboplastin time T max [1, 6]: 1.50 (0.50, 4.00) h
T max ([3]; edoxaban day 4 after switching from dabigatran etexilate (treatment 3)): 1.00 (0.50, 3.00) h
T max ([3]; edoxaban day 4 after switching from rivaroxaban (treatment 2)): 1.00 (0.50, 2.00) h
Tmax ([3]; human, in vivo, 60 mg): 1 h
AUC ([3]; human, in vivo, 60 mg, edoxaban alone, day 1 (treatment 1), mean ± SD): 1780 ± 319 ng·h/mL
AUC ([3]; human, in vivo, 60 mg, edoxaban alone, day 4 (treatment 1), mean ± SD): 1990 ± 403 ng·h/mL
AUC ([3]; human, in vivo, 60 mg, edoxaban day 4 after switching from dabigatran etexilate (treatment 3), mean ± SD): 1680 ± 475 ng·h/mL
AUC ([3]; human, in vivo, 60 mg, edoxaban day 4 after switching from rivaroxaban (treatment 2), mean ± SD): 1740 ± 353 ng·h/mL
Cmax ([3]; human, in vivo, 60 mg, edoxaban 60 mg on day 4 after switching from dabigatran etexilate 150 mg twice daily for 3 days (treatment 3), mean ± SD): 280 ± 124 ng/mL
Cmax ([3]; human, in vivo, 60 mg, edoxaban 60 mg on day 4 after switching from rivaroxaban 20 mg once daily for 3 days (treatment 2), mean ± SD): 288 ± 113 ng/mL
Cmax ([3]; human, in vivo, 60 mg, edoxaban 60 mg once daily alone, day 1 (treatment 1), mean ± SD): 309 ± 97.2 ng/mL
Cmax ([3]; human, in vivo, 60 mg, edoxaban 60 mg once daily alone, day 4 (treatment 1), mean ± SD): 303 ± 87.7 ng/mL
concentration at 1 day ([3]; human, in vivo, 60 mg, C trough, edoxaban alone, day 1 (treatment 1), mean ± SD): 14 ± 5.44 ng/mL
concentration at 4 day ([3]; human, in vivo, 60 mg, C trough, edoxaban alone, day 4 (treatment 1), mean ± SD): 15.5 ± 3.98 ng/mL
concentration at 4 day ([3]; human, in vivo, 60 mg, C trough, edoxaban day 4 after switching from dabigatran etexilate (treatment 3), mean ± SD): 12.8 ± 4.13 ng/mL
concentration at 4 day ([3]; human, in vivo, 60 mg, C trough, edoxaban day 4 after switching from rivaroxaban (treatment 2), mean ± SD): 13.4 ± 5 ng/mL
Compound: CN1CCc2nc(C(=O)N[C@@H]3C[C@@H](C(=O)N(C)C)CC[C@@H]3NC(=O)C(=O)Nc3ccc(Cl)cn3)sc2C1 [Edoxaban, edoxaban]
LS mean aPTT at 2 h after dosing ([1]; day 4, after switching from dabigatran etexilate to edoxaban (treatment 3)): 47.6 s
Activated partial thromboplastin time A max [1, 4]: 50.8 ± 8.92 s
Activated partial thromboplastin time A min [1, 4]: 30.0 ± 2.20 s
Activated partial thromboplastin time AUEτ [1, 4]: 863 ± 87.3 s·h
Activated partial thromboplastin time A max [1, 5]: 36.5 ± 3.94 s
Activated partial thromboplastin time A min [1, 5]: 28.4 ± 2.13 s
Activated partial thromboplastin time AUEτ [1, 5]: 738 ± 58.6 s·h
LS mean aPTT at 2 h after dosing [1, 6]: 35.0 s
Activated partial thromboplastin time A max [1, 6]: 35.9 ± 3.15 s
Activated partial thromboplastin time A min [1, 6]: 27.7 ± 1.70 s
Activated partial thromboplastin time AUEτ [1, 6]: 725 ± 48.8 s·h
time to peak effect on aPTT ([1]; edoxaban alone (treatment 1), return to baseline by 24 h): 1 to 2 h
ETP Amax (thrombin generation; day 4, continual edoxaban treatment (treatment 1)): 3644 ± 434 mN·min
Endogenous thrombin potential A max (thrombin generation; [7]): 3338 ± 575 nM·min
Endogenous thrombin potential A min (thrombin generation; [7]): 1239 ± 828 nM·min
Lag time A max (thrombin generation; [7]): 55.3 ± 16.2 min
Lag time A min (thrombin generation; [7]): 20.5 ± 3.60 min
Peak thrombin A max (thrombin generation; [7]): 302 ± 77.0 nM
Peak thrombin A min (thrombin generation; [7]): 48.9 ± 25.2 nM
Time to peak A max (thrombin generation; [7]): 74.0 ± 12.4 min
Time to peak A min (thrombin generation; [7]): 27.5 ± 7.94 min
Velocity A max (thrombin generation; [7]): 46.5 ± 25.7 nM/min
Velocity A min (thrombin generation; [7]): 2.13 ± 1.35 nM/min
Endogenous thrombin potential A max (thrombin generation; [8]): 3680 ± 462 nM·min
Endogenous thrombin potential A min (thrombin generation; [8]): 1506 ± 798 nM·min
Lag time A max (thrombin generation; [8]): 39.9 ± 9.96 min
Lag time A min (thrombin generation; [8]): 15.8 ± 3.54 min
Peak thrombin A max (thrombin generation; [8]): 324 ± 123 nM
Peak thrombin A min (thrombin generation; [8]): 49.2 ± 31.9 nM
Time to peak A max (thrombin generation; [8]): 59.4 ± 14.6 min
Time to peak A min (thrombin generation; [8]): 22.0 ± 5.15 min
Velocity A max (thrombin generation; [8]): 67.4 ± 46.6 nM/min
Velocity A min (thrombin generation; [8]): 3.04 ± 2.88 nM/min
Endogenous thrombin potential A max (thrombin generation; [9]): 3635 ± 432 nM·min
Endogenous thrombin potential A min (thrombin generation; [9]): 1520 ± 754 nM·min
Lag time A max (thrombin generation; [9]): 38.3 ± 8.59 min
Lag time A min (thrombin generation; [9]): 15.8 ± 2.25 min
Peak thrombin A max (thrombin generation; [9]): 323 ± 98.1 nM
Peak thrombin A min (thrombin generation; [9]): 45.7 ± 25.5 nM
Time to peak A max (thrombin generation; [9]): 58.6 ± 12.6 min
Time to peak A min (thrombin generation; [9]): 22.2 ± 4.13 min
Velocity A max (thrombin generation; [9]): 61.4 ± 31.3 nM/min
Velocity A min (thrombin generation; [9]): 2.62 ± 1.92 nM/min
Endogenous thrombin potential A max (thrombin generation; [10]): 3644 ± 434 nM·min
Endogenous thrombin potential A min (thrombin generation; [10]): 1474 ± 755 nM·min
Lag time A max (thrombin generation; [10]): 37.8 ± 7.09 min
Lag time A min (thrombin generation; [10]): 16.9 ± 2.41 min
Peak thrombin A max (thrombin generation; [10]): 315 ± 90.6 nM
Peak thrombin A min (thrombin generation; [10]): 43.4 ± 25.1 nM
Time to peak A max (thrombin generation; [10]): 58.5 ± 12.2 min
Time to peak A min (thrombin generation; [10]): 23.7 ± 4.29 min
Velocity A max (thrombin generation; [10]): 58.4 ± 31.9 nM/min
Velocity A min (thrombin generation; [10]): 2.40 ± 1.89 nM/min
tolerability (Safety assessment): well tolerated
oral bioavailability [2]: approximately 62%
terminal elimination half-life [2]: 10 to 14 h
time to peak plasma concentration and peak antithrombotic effect ([2]; oral): 1 to 2 h

Compound: O=C(NC[C@H]1CN(c2ccc(N3CCOCC3=O)cc2)C(=O)O1)c1ccc(Cl)s1 [rivaroxaban]
tolerability (Safety assessment): well tolerated

Compound: CCCCCCOC(=O)NC(=N)c1ccc(NCc2nc3cc(C(=O)N(CCC(=O)OCC)c4ccccn4)ccc3n2C)cc1 [dabigatran etexilate]
tolerability (Safety assessment): well tolerated
